Reference: ChEMBL document CHEMBL4706771, “Discovery of Orally Bioavailable Ligand Efficient Quinazolindiones as Potent and Selective Tankyrases Inhibitors” (ACS Med Chem Lett, 2021)

Assays:
[1] = biological target: T1, Poly [ADP-ribose] polymerase tankyrase-1 (Homo sapiens, UniProt O95271); test: Inhibition of human TNKS1 incubated for 1 to 2 hrs by fluorescence polarization assay
T1 sequence (O95271 whole entry): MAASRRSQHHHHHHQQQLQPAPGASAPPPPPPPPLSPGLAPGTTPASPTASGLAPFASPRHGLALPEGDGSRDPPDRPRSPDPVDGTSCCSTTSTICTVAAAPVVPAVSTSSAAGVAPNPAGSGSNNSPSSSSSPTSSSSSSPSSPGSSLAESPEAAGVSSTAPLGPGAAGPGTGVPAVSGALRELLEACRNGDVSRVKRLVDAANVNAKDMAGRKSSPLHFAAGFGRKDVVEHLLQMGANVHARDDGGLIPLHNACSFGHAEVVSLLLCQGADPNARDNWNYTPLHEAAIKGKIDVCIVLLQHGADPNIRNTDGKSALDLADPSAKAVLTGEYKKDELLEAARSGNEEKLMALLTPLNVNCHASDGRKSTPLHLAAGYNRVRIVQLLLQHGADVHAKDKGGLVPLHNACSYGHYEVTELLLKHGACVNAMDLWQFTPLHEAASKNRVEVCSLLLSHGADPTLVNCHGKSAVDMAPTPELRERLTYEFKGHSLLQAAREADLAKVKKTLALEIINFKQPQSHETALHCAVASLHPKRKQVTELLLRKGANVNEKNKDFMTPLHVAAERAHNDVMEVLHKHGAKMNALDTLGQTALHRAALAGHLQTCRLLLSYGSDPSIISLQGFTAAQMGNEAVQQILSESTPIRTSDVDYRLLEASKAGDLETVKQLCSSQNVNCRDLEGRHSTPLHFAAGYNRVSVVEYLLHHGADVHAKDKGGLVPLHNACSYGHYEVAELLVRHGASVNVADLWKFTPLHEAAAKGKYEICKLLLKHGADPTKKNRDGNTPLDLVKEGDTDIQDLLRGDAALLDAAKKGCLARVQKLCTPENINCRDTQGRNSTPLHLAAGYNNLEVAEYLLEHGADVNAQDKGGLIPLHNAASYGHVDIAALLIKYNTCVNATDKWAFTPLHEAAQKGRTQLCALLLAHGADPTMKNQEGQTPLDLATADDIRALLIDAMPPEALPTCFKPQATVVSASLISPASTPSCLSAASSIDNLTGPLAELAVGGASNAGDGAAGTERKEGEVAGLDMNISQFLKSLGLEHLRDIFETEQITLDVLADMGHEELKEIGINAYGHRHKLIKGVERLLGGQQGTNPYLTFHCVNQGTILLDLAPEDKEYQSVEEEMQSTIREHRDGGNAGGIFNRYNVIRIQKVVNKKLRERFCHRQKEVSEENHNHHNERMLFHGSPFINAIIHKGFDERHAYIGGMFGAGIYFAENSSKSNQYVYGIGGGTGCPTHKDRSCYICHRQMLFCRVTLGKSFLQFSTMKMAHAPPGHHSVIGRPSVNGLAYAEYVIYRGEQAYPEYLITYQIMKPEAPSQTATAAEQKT

[2] = Inhibition of Wnt/beta-catenin (unknown origin) expressed in human HEK293 cells expressing MSRII transfected with DNA-LF2K incubated for 24 hrs by luciferase reporter gene assay; details: HEK293, 24 h
[3] = Oral bioavailability in Sprague-Dawley rat at 5 mg/kg; assay type: ADME, organism-based; details: in vivo
[4] = Volume of distribution in Sprague-Dawley rat at 5 mg/kg, po or 2 mg/kg, iv; assay type: ADME, organism-based; details: in vivo
[5] = Clearance in Sprague-Dawley rat at 5 mg/kg, po or 2 mg/kg, iv; assay type: ADME, organism-based; details: in vivo
[6] = Half life in Sprague-Dawley rat at 5 mg/kg, po or 2 mg/kg, iv; assay type: ADME, organism-based; details: in vivo
[7] = Dose normalised AUC in Sprague-Dawley rat at 5 mg/kg, po; assay type: ADME, organism-based; details: in vivo
[8] = Dose normalised AUC in Sprague-Dawley rat at 10 mg/kg, po; assay type: ADME, organism-based; details: in vivo
[9] = Half life in Sprague-Dawley rat at 10 mg/kg, po or 0.5 mg/kg, iv; assay type: ADME, organism-based; details: in vivo
[10] = Oral bioavailability in Sprague-Dawley rat at 10 mg/kg; assay type: ADME, organism-based; details: in vivo
[11] = Volume of distribution in Sprague-Dawley rat at 10 mg/kg, po or 0.5 mg/kg, iv; assay type: ADME, organism-based; details: in vivo
[12] = Clearance in Sprague-Dawley rat at 10 mg/kg, po or 0.5 mg/kg, iv; assay type: ADME, organism-based; details: in vivo
[13] = biological target: T2, Poly [ADP-ribose] polymerase tankyrase-2 (Homo sapiens, UniProt Q9H2K2); test: Inhibition of human TNKS2 incubated for 1 to 2 hrs by fluorescence polarization assay
T2 sequence (Q9H2K2 whole entry): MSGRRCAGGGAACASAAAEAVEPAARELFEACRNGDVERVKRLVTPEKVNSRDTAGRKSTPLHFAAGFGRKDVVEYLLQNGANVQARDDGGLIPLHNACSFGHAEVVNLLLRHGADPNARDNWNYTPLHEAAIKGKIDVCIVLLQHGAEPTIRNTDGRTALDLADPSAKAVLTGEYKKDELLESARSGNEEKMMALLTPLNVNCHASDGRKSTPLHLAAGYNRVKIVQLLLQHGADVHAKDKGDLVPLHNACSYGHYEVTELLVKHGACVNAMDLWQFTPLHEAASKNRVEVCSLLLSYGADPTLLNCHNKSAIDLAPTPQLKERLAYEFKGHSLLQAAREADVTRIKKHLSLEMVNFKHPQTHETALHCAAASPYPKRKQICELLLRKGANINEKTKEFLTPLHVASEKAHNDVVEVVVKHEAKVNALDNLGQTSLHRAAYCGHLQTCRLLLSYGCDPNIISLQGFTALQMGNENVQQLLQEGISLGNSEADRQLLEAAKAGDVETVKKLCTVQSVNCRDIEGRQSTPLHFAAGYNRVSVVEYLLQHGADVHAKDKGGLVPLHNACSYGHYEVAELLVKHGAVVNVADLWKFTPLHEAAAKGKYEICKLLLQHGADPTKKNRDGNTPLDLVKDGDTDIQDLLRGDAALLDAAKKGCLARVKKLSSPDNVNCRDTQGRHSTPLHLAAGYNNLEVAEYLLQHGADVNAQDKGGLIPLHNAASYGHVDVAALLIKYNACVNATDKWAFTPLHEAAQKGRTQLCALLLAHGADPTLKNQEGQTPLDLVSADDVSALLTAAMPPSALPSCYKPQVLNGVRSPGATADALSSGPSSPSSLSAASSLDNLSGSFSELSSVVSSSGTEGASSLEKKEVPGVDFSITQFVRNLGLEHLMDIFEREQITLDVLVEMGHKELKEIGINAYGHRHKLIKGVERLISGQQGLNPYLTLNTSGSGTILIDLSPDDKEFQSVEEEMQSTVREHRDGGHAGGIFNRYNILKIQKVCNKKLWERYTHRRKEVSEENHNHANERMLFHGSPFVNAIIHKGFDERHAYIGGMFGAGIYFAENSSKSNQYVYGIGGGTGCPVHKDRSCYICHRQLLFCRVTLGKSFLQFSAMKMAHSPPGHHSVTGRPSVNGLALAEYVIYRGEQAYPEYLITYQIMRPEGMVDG

[14] = Half life in Sprague-Dawley rat at 0.5 mg/kg, iv; assay type: ADME, organism-based; details: in vivo
[15] = Volume of distribution in Sprague-Dawley rat at 0.5 mg/kg, iv; assay type: ADME, organism-based; details: in vivo
[16] = Clearance in Sprague-Dawley rat at 0.5 mg/kg, iv; assay type: ADME, organism-based; details: in vivo

Row | SMILES | IC50 [1] | IC50 [2] | also measured
1 | N#Cc1c(Cn2c(=O)n(C[C@H]3CC[C@H](C(=O)O)CC3)c(=O)c3c(F)cccc32)cccc1C(F)(F)F | 39.8 nM | 63.1 nM | –
2 | Cc1ccc2c(c1C)c(=O)n(C[C@H]1CC[C@H](C(=O)O)CC1)c(=O)n2Cc1cccc(C(F)(F)F)c1C#N | 15.8 nM | 251 nM | –
3 | COc1cccc2c1c(=O)n(C[C@H]1CC[C@H](C(=O)O)CC1)c(=O)n2Cc1cccc(C(F)(F)F)c1C#N | 8.1 nM | 20 nM | –
4 | N#Cc1c(Cn2c(=O)n(C[C@H]3CC[C@H](C(=O)O)CC3)c(=O)c3c(Cl)cccc32)cccc1C(F)(F)F | 15.8 nM | 63.1 nM | –
5 | N#Cc1c(Cn2c(=O)n(C[C@H]3CC[C@H](C(=O)O)CC3)c(=O)c3ccccc32)cccc1C(F)(F)F | – | 63.1 nM | bioavailability [3]: 14.5%; Vd [4]: 0.81 L/kg; clearance [5]: 1.88 mL/min/kg; half-life [6]: 312 min; AUC/dose [7]: 1293 ng·h/mL
6 | Cc1ccc2c(c1C)c(=O)n(C[C@H]1CC[C@H](C(=O)Nc3ccncc3)CC1)c(=O)n2Cc1cccc(C(F)(F)F)c1C#N | 6.3 nM | 25.1 nM | –
7 | Cc1c(F)ccc2c1c(=O)n(C[C@H]1CC[C@H](C(=O)O)CC1)c(=O)n2Cc1cccc(C(F)(F)F)c1C#N | – | 20 nM | –
8 | Cc1c(C(N)=O)ccc2c1c(=O)n(C[C@H]1CC[C@H](C(=O)Nc3ccncc3)CC1)c(=O)n2Cc1cccc(C(F)(F)F)c1C#N | 25.1 nM | 63.1 nM | –
9 | Cc1ccc(NC(=O)[C@H]2CC[C@H](Cn3c(=O)c4c(C)cccc4n(Cc4cccc(C(F)(F)F)c4C#N)c3=O)CC2)cn1 | 4 nM | 15.8 nM | –
10 | Cc1cccc2c1c(=O)n(C[C@H]1CC[C@H](C(=O)Nc3cnn(C)c3)CC1)c(=O)n2Cc1cccc(C(F)(F)F)c1C#N | 2.5 nM | 10 nM | –
11 | Cc1cccc2c1c(=O)n(C[C@H]1CC[C@H](C(=O)Nc3ccnnc3)CC1)c(=O)n2Cc1cccc(C(F)(F)F)c1C#N | 2.5 nM | 31.6 nM | –

Continued, in another order:

Row | IC50 [1] | IC50 [2] | SMILES | also measured
12 | 63.1 nM | 25.1 nM | N#Cc1ccccc1Cn1c(=O)n(C[C@H]2CC[C@H](C(=O)Nc3ccncc3)CC2)c(=O)c2ccncc21 | –
13 | 3.2 nM | 39.8 nM | Cc1cccc2c1c(=O)n(C[C@H]1CC[C@H](C(=O)Nc3ccncc3)CC1)c(=O)n2Cc1cccc(C(F)(F)F)c1C#N | –
14 | 4 nM | 15.8 nM | N#Cc1c(Cn2c(=O)n(C[C@H]3CC[C@H](C(=O)Nc4ccncc4)CC3)c(=O)c3c(F)cccc32)cccc1C(F)(F)F | –
15 | 2 nM | 31.6 nM | Cc1cccc(Cn2c(=O)n(C[C@H]3CC[C@H](C(=O)Nc4ccncc4)CC3)c(=O)c3c(C)cccc32)c1C#N | –
16 | 100 nM | 251 nM | N#Cc1ccccc1Cn1c(=O)n(C[C@H]2CC[C@H](C(=O)Nc3ccncc3)CC2)c(=O)c2nc[nH]c21 | –
17 | 3.2 nM | 10 nM | Cc1cccc2c1c(=O)n(C[C@H]1CC[C@H](C(=O)Nc3ccncc3)CC1)c(=O)n2Cc1ccccc1C#N | –
18 | 126 nM | 79.4 nM | N#Cc1ccccc1Cn1c(=O)n(C[C@H]2CC[C@H](C(=O)Nc3ccncc3)CC2)c(=O)c2ncccc21 | –
19 | 4 nM | 6.3 nM | N#Cc1ccccc1Cn1c(=O)n(C[C@H]2CC[C@H](C(=O)Nc3ccncc3)CC2)c(=O)c2ccccc21 | AUC/dose [8]: 37.7 ng·h/mL; half-life [9]: 43.2 min; bioavailability [10]: 3.6%; Vd [11]: 4.42 L/kg; clearance [12]: 91.2 mL/min/kg
20 | 3.2 nM | 6.3 nM | N#Cc1c(Cn2c(=O)n(C[C@H]3CC[C@H](C(=O)Nc4ccncc4)CC3)c(=O)c3c(Cl)cccc32)cccc1C(F)(F)F | –
21 | 3.2 nM | 15.8 nM | Cc1c(F)ccc2c1c(=O)n(C[C@H]1CC[C@H](C(=O)Nc3ccncc3)CC1)c(=O)n2Cc1cccc(C(F)(F)F)c1C#N | –
22 | 631 nM | > 5000 nM | N#Cc1ccccc1Cn1c(=O)n(C[C@H]2CC[C@H](C(=O)NCc3ccccc3)CC2)c(=O)c2ccccc21 | IC50 [13]: 7940 nM
23 | 4 nM | 12.6 nM | COc1cccc2c1c(=O)n(C[C@H]1CC[C@H](C(=O)Nc3ccncc3)CC1)c(=O)n2Cc1cccc(C(F)(F)F)c1C#N | –
24 | 2 nM | 6.3 nM | Cc1cccc2c1c(=O)n(C[C@H]1CC[C@H](C(=O)Nc3ccncc3)CC1)c(=O)n2Cc1cccc(Cl)c1C#N | half-life [14]: 37.2 min; Vd [15]: 2.1 L/kg; clearance [16]: 45.9 mL/min/kg
25 | 2 nM | 12.6 nM | N#Cc1c(Cn2c(=O)n(C[C@H]3CC[C@H](C(=O)Nc4ccncc4)CC3)c(=O)c3ccccc32)cccc1C(F)(F)F | –
